Source: publication PMC10600239, “Selective MCL-1 inhibitor ABBV-467 is efficacious in tumor models but is associated with cardiac troponin increases in patients” (Communications Medicine, 2023)

System: AMO-1 xenografts
Test: AMO-1 xenograft efficacy (tumor volume, body weight)
Format: in vivo, mouse
Description: All animal studies were conducted in accordance with the guidelines approved by the Institutional Animal Care and Use Committees of AbbVie. The research protocol was approved by In Vivo Pharmacology at AbbVie prior to study initiation but was not publicly registered or disclosed. Female C.B-17 SCID-beige mice (AMO-1, OPM-2, NCI-H929, and OCI-AML2 xenografts) and female NSG mice (MV4-11-Red.Fluc systemic) were purchased from Charles River Laboratories (Wilmington, MA). Animals were housed in a light cycle-controlled room with HEPA filtration at 22 °C. Animals had nesting and climbing cage topper as the primary environmental enrichment. Animals were inoculated subcutaneously in the right flank with 5 × 10^6 (AMO-1, OPM-2, NCI-H929, and OCI-AML2) or intravenous (IV) with 5 × 10^6 (MV4-11-Red.Fluc). The inoculation volume (0.2 mL) comprised a 50:50 mixture of cells in growth media and Matrigel (BD Biosciences) for subcutaneous injections and 100% phosphate-buffered saline for IV administration. All cell lines used in this publication were authenticated using IDEXX for STR profiling as well as their IMPACT and human IMPACT panels for pathogen screening. Electronic calipers were used to measure the length and width of each tumor 2 to 3 times per week. Tumor volume was estimated by applying the following equation: volume = length × width^2/2. All groups remained blinded during measurements and dosing; only veterinary staff were aware of group identity. When tumors reached approximately 200 mm^3, mice were randomized by match and distributed into treatment and control groups. All xenograft trials were conducted using 5 to 10 mice per group, and all mice were ear tagged and monitored individually throughout the studies. […] Tumor burden in the systemic MV4-11-Red.Fluc experiment was measured using an IVIS® spectrum from PerkinElmer by taking the total photon flux of the entire dorsal side of an individual mouse. […] A background control mouse that was tumor naive but received D-Luciferin was placed in the upper left corner of each image. The total flux from this animal was subtracted from the total flux of each animal present in the image.
For in vivo studies, maximal tumor growth inhibition (TGI) was calculated as the greatest treatment response using the following equation: Maximal TGI = (1 − mean tumor volume of the treated group/mean tumor volume of the vehicle control group) × 100. The tumor growth delay (TGD) percentage was determined as the percentage increase of the median time period for the treatment group to reach an arbitrary tumor volume of 1000 mm^3 relative to the vehicle control group. […] A power analysis was conducted using historical data to determine the number of animals required to yield significance of 0.05 at a 30% difference. […] Data from experiments in vivo were analyzed using the student’s t-test for TGI values and the Mann–Whitney U test for TGD using Excel and GraphPad Prism. Fisher’s exact test was used to probe significance of differences in response frequency.

SMILES	Results: toxicity following iv injection (SCID-beige mice bearing AMO-1 (DSMZ) flank xenografts, IV, Q7Dx2, 6.25-25 mg/kg, 5% DMSO, 10% cremophor EL, 85% D5W)	tolerability (mice, 25 mg/kg on a Q7D × 2 schedule)
Cc1c(Cl)c2c(Cl)c(C)c1-c1c(-c3ccc(F)cc3)sc3ncnc(c13)O[C@@H](C(=O)O)Cc1cc(ccc1OCc1ccnc(-c3ccc(OC[C@H]4COCCO4)cc3)n1)OC[C@@H](CN1CCN(C)CC1)O2 [Compound A-1747745]	A-1747745 and A-1746463 showed lethal toxicity due to drug precipitate folowing iv injection.	–
Cc1c(Cl)c2c(Cl)c(C)c1-c1c(-c3ccc(F)cc3)sc3ncnc(c13)O[C@@H](C(=O)O)Cc1cc(ccc1OCc1ccnc(-c3ccc(OC[C@H]4COCCO4)cc3)n1)OC[C@@H](CN1CCN(C)CC1)O2 [ABBV-467]	–	not well-tolerated
